“And” between values parts separate entries of the source, which are not always exact repeats. Identical values can stand only once.
Columns and labels:
[1] = tested on: leiomyosarcoma tumor; assay: Clinical evaluation: leiomyosarcoma patients, cycle 1, CT scan and DCE-US (Table 2); assay type: in vivo, human
Text: A study of 4,4,4-Trifluoro-N-[(1S)-2-[[(7S)-5-(2-hydroxyethyl)-6-oxo-7H-pyrido[2,3-d][3]benzazepin-7-yl]amino]-1-methyl-2-oxo-ethyl]butanamide hydrate in patients with advanced or metastatic cancer.
(§1) This study is a multicenter, nonrandomized, open-label, dose-escalation study followed by cohort expansion of oral dosed 4,4,4-trifluoro-N-[(1S)-2-[[(7S)-5-(2-hydroxyethyl)-6-oxo-7H-pyrido[2,3-d][3]benzazepin-7-yl]amino]-1-methyl-2-oxo-ethyl]butanamide hydrate in outpatients with advanced or metastatic cancer.
(§2) 4,4,4-Trifluoro-N-[(1S)-2-[[(7S)-5-(2-hydroxyethyl)-6-oxo-7H-pyrido[2,3-d][3]benzazepin-7-yl]amino]-1-methyl-2-oxo-ethyl]butanamide hydrate, dose range 2.5 to 100 mg, given orally as capsules 3 times per week during a 28-day cycle.
(§3) 4,4,4-Trifluoro-N-[(1S)-2-[[(7S)-5-(2-hydroxyethyl)-6-oxo-7H-pyrido[2,3-d][3]benzazepin-7-yl]amino]-1-methyl-2-oxo-ethyl]butanamide hydrate will be administered orally TIW during both the dose-escalation phase (Part A) and the dose-confirmation phase (Part B).
(§4) Efficacy: Depending on the histology, efficacy will be assessed using Response Evaluation Criteria in Solid Tumors (RECIST) v1.1 for solid tumors, the Revised Criteria for Malignant Lymphoma, the Guidelines from the National Cancer Institute Working Group for CLL, or the Response Assessment in Neuro-Oncology (RANO) criteria for glioblastoma. Each patient will be assessed by 1 or more of the following radiologic tests for tumor measurement: X-ray computerized tomography (CT) scan; magnetic resonance imaging (MRI); chest X-ray; PET scan; PET/CT imaging Standardized Uptake Values (SUVMAX).
Data on 3 patients having leiomyosarcoma administered 4,4,4-trifluoro-N-[(1S)-2-[[(7S)-5-(2-hydroxyethyl)-6-oxo-7H-pyrido[2,3-d][3]benzazepin-7-yl]amino]-1-methyl-2-oxo-ethyl]butanamide hydrate in cycle 1 of an ongoing clinical trial are presented in Table 2. Patient 1 was previously treated for leiomyosarcoma with surgery, radiation therapy and 5 prior regimens of systemic therapeutic or targeted therapies. Patient 2 was previously treated for leiomyosarcoma with surgery, radiation therapy, brachytherapy and 3 prior regimens of systemic therapeutic or targeted therapies. Patient 3 was previously treated for leiomyosarcoma with surgery and 3 prior regimens of systemic therapeutic or targeted therapies.

[2] = tested on: leiomyosarcoma tumor; assay: Clinical evaluation Part B: leiomyosarcoma patients, RECIST, tumor size, PET/CT SUVmax (Table 3); assay type: in vivo, human
Text: PET/CT imaging of cancer with combined positron emission tomography (PET) and X-ray computerized tomography (CT) scanners has become a standard component of diagnosis and staging in oncology. The use of the radiolabeled tracer 2-deoxy-2-[^18F]fluoro-D-glucose (FDG) is used for the majority of all PET/CT imaging procedures. One of the advantages of PET/CT imaging is its ability to detect, very early during treatment, significant changes in glucose metabolism or even complete shutoff of the neoplastic cell metabolism as a surrogate of tumor chemosensitivity assessment. In addition to cancer detection and staging, PET/CT imaging is becoming increasingly important as a quantitative monitor of individual response to therapy and an evaluation tool for new drug therapies. […] RECIST criteria, where response of tumors to therapy has traditionally assessed by measurement of changes in size/dimension of the tumors in CT images may not evidence early response to the therapy. Changes in size of tumors as a result of therapy may take a long period of time to develop. The most widely used parameter is the standardized uptake value (SUV) is defined as the maximal SUV value (SUVMAX) in the region of interest and reduction in SUVMAX is generally considered the most reliable indicator of the metabolic activity shutdown.
as §1, §2, §3, §4
Data on 19 additional patients having leiomyosarcoma administered 4,4,4-trifluoro-N-[(1S)-2-[[(7S)-5-(2-hydroxyethyl)-6-oxo-7H-pyrido[2,3-d][3]benzazepin-7-yl]amino]-1-methyl-2-oxo-ethyl]butanamide hydrate in Part B of an ongoing clinical trial are presented in Table 3. Choi Response Criteria, were recorded for a limited number of patients and are not reported in Table 3, Choi et al, J Clin Oncol. 2007; 25:1753-1759.

[3] = Atropisomer equilibrium in solution by 1H NMR and LC-MS; assay type: physicochemical; details: ambient temperature, after 24 hours
Method: In aqueous solutions, 8-9% of atropisomer 2 (minor atropisomer) is detected by ^1H NMR and LC-MS in equilibrium with atropisomer 1 (major atropisomer) at ambient temperature after 24 hours. In organic solvents, at ambient temperature after 24 hours, approximately 1-2% of atropisomer 2 is detected by ^1H NMR and LC-MS in equilibrium with atropisomer 1. Although detectable by ^1H NMR and LC-MS analysis, atropisomer 2 is not isolable.

[4] = Patient 1, initial oral dose 100 mg T.I.W., cycle 1
[5] = first assigned dose 50 mg, individual LMS patients 8-22, Hydrate
[6] = first assigned dose 75 mg, individual LMS patients 4-7, Hydrate

SMILES | Overall Response DCE-US [1, 4] | Target Response [1, 4] [% necrosis] | Additional CT scan imaging after 1 cycle ([1]; after 1 cycle (28 days), patients 1-3) | Necrosis of leiomyosarcoma tumor (CT scan of the liver, confirmed by DCE-US) ([1]; patients 1 and 2, first week of treatment) | Best Change in Tumor Size (%) [2, 5] | PET/CT Scan (change in SUVmax %) [2, 5] | Best Change in Tumor Size (%) [2, 6] | Best RECIST Response [2, 6] | PET/CT Scan (change in SUVmax %) [2, 6] | Clinical effect in leiomyosarcoma tumor patients (PET/CT SUVMAX data) ([2]; summary of Table 3 data) | atropisomer 2 (minor atropisomer) detected in equilibrium with atropisomer 1 ([3]; aqueous solutions) | atropisomer 2 detected in equilibrium with atropisomer 1 ([3]; organic solvents)
C[C@H](NC(=O)CCC(F)(F)F)C(=O)N[C@@H]1C(=O)N(CCO)c2ncccc2-c2ccccc21 [4,4,4-Trifluoro-N-[(1S)-2-[[(7S)-5-(2-hydroxyethyl)-6-oxo-7H-pyrido[2,3-d][3]benzazepin-7-yl]amino]-1-methyl-2-oxo-ethyl]butanamide Hydrate] | Confirmed | 90 | confirmed necrosis in all three patients | significant necrosis | 13% and 60% and 37% and 19% and 20% and −13% and 33% and 24% and 23% and 50% | −7% and 37% and −5% and −30% and 0% and −11% and 16% | 13% and 23% and 2% | Unconfirmed PR | −4% and 58% and 10% and 32% | beneficial clinical effect |  | 
C[C@H](NC(=O)CCC(F)(F)F)C(=O)N[C@@H]1C(=O)N(CCO)c2ncccc2-c2ccccc21 [Compound 1, 4,4,4-trifluoro-N-[(1S)-2-[[(7S)-5-(2-hydroxyethyl)-6-oxo-7H-pyrido[2,3-d][3]benzazepin-7-yl]amino]-1-methyl-2-oxo-ethyl]butanamide] |  |  |  |  |  |  |  |  |  |  | 8-9% | 1-2%

From patent US10555951B2, “Targeted treatment of leiomyosarcoma” (Eli Lilly and Company, priority 2015, dated 2020)
